Measured values: ChEMBL document CHEMBL3885881, “DrugMatrix”

Species on record: Rattus norvegicus
Test: DrugMatrix - Regimen: Daily Repeat
Type: toxicity, organism-based, Sprague-Dawley
Parameters: regimen Daily Repeat, gender Male, age 6-8 weeks
Settings: in vivo, po, route oral GAVAGE, vehicle .5 % CMC; for ABSOLUTE BASOPHIL / ABSOLUTE EOSINOPHIL / ABSOLUTE LYMPHOCYTE / ABSOLUTE MONOCYTE / ABSOLUTE SEGMENTED NEUTROPHIL / BASOPHIL / EOSINOPHIL / ERYTHROCYTE COUNT / HEMATOCRIT / HEMOGLOBIN / LEUKOCYTE COUNT / LYMPHOCYTE / MEAN CORPUSCULAR HEMOGLOBIN / MEAN CORPUSCULAR HEMOGLOBIN CONCENTRATION / MEAN CORPUSCULAR VOLUME / MONOCYTE / NEUTROPHIL / NUCLEATED RED BLOOD CELLS / PLATELET COUNT: tissue Blood; for ALANINE AMINOTRANSFERASE / ALBUMIN / ALKALINE PHOSPHATASE / ASPARTATE AMINOTRANSFERASE / BLOOD UREA NITROGEN / CARBON DIOXIDE / CHLORIDE / CHOLESTEROL / CREATINE PHOSPHOKINASE / CREATININE / GLUCOSE / LACTATE DEHYDROGENASE / LIPASE / PHOSPHORUS / POTASSIUM / SODIUM / TOTAL BILIRUBIN / TOTAL PROTEIN / URIC ACID: tissue Plasma
[1] = 50 mg/kg, 120 h, dose level Low, time 5 day
[2] = 2500 mg/kg, 72 h, dose level High, time 3 day
[3] = 2500 mg/kg, 120 h, dose level High, time 5 day

## CC(/C=C1\SC(=S)N(CC(=O)O)C1=O)=C\c1ccccc1
[1]
  ABSOLUTE BASOPHIL: 0 CELLS/uL
  ABSOLUTE EOSINOPHIL: 0 CELLS/uL
  ABSOLUTE LYMPHOCYTE: 8755.33 CELLS/uL
  ABSOLUTE MONOCYTE: 98 CELLS/uL
  ABSOLUTE SEGMENTED NEUTROPHIL: 946.67 CELLS/uL
  BASOPHIL: 0%
  EOSINOPHIL: 0%
  ERYTHROCYTE COUNT: 5.47 x10E6/uL
  HEMATOCRIT: 34.63%
  HEMOGLOBIN: 14.03 G/DL
  LEUKOCYTE COUNT: 9.8 x10E3/uL
  LYMPHOCYTE: 89.67%
  MEAN CORPUSCULAR HEMOGLOBIN: 25.7 pg
  MEAN CORPUSCULAR HEMOGLOBIN CONCENTRATION: 40.53 G/DL
  MEAN CORPUSCULAR VOLUME: 63.33 fL
  MONOCYTE: 1%
  NEUTROPHIL: 9.33%
  NUCLEATED RED BLOOD CELLS: 0 /100WBC
  PLATELET COUNT: 1226 x10E3/uL
  ALANINE AMINOTRANSFERASE: 61.33 u/L
  ALBUMIN: 4.5 G/DL
  ALKALINE PHOSPHATASE: 418.33 u/L
  ASPARTATE AMINOTRANSFERASE: 81.33 u/L
  BLOOD UREA NITROGEN: 14.33 mg/dL
  CARBON DIOXIDE: 34 mmol/L
  CHLORIDE: 100.67 MEQ/L
  CHOLESTEROL: 81 mg/dL
  CREATINE PHOSPHOKINASE: 171 u/L
  CREATININE: 0.12 mg/dL
  GLUCOSE: 147.33 mg/dL
  LACTATE DEHYDROGENASE: 106.67 u/L
  LIPASE: 10 u/L
  PHOSPHORUS: 10.83 mg/dL
  POTASSIUM: 6.07 MEQ/L
  SODIUM: 143.73 MEQ/L
  TOTAL BILIRUBIN: 0.2 mg/dL
  TOTAL PROTEIN: 6.37 G/DL
  URIC ACID: 0.87 mg/dL
[2]
  ABSOLUTE BASOPHIL: 0 CELLS/uL
  ABSOLUTE EOSINOPHIL: 58.67 CELLS/uL
  ABSOLUTE LYMPHOCYTE: 8116.67 CELLS/uL
  ABSOLUTE MONOCYTE: 158 CELLS/uL
  ABSOLUTE SEGMENTED NEUTROPHIL: 700 CELLS/uL
  BASOPHIL: 0%
  EOSINOPHIL: 0.67%
  ERYTHROCYTE COUNT: 6.27 x10E6/uL
  HEMATOCRIT: 39%
  HEMOGLOBIN: 15.47 G/DL
  LEUKOCYTE COUNT: 9.03 x10E3/uL
  LYMPHOCYTE: 90%
  MEAN CORPUSCULAR HEMOGLOBIN: 24.83 pg
  MEAN CORPUSCULAR HEMOGLOBIN CONCENTRATION: 39.77 G/DL
  MEAN CORPUSCULAR VOLUME: 62.43 fL
  MONOCYTE: 1.67%
  NEUTROPHIL: 7.67%
  NUCLEATED RED BLOOD CELLS: 0 /100WBC
  PLATELET COUNT: 1417 x10E3/uL
  ALANINE AMINOTRANSFERASE: 61.33 u/L
  ALBUMIN: 3.93 G/DL
  ALKALINE PHOSPHATASE: 381 u/L
  ASPARTATE AMINOTRANSFERASE: 133.33 u/L
  BLOOD UREA NITROGEN: 25 mg/dL
  CARBON DIOXIDE: 19 mmol/L
  CHLORIDE: 105.33 MEQ/L
  CHOLESTEROL: 46 mg/dL
  CREATINE PHOSPHOKINASE: 544.33 u/L
  CREATININE: 0.22 mg/dL
  GLUCOSE: 130.33 mg/dL
  LACTATE DEHYDROGENASE: 248.67 u/L
  LIPASE: 9.33 u/L
  PHOSPHORUS: 11.67 mg/dL
  POTASSIUM: 5.57 MEQ/L
  SODIUM: 142.23 MEQ/L
  TOTAL BILIRUBIN: 0.27 mg/dL
  TOTAL PROTEIN: 5.4 G/DL
  URIC ACID: 1.83 mg/dL
[3]
  ABSOLUTE BASOPHIL: 0 CELLS/uL
  ABSOLUTE EOSINOPHIL: 0 CELLS/uL
  ABSOLUTE LYMPHOCYTE: 3825 CELLS/uL
  ABSOLUTE MONOCYTE: 102 CELLS/uL
  ABSOLUTE SEGMENTED NEUTROPHIL: 1173 CELLS/uL
  BASOPHIL: 0%
  EOSINOPHIL: 0%
  ERYTHROCYTE COUNT: 7.26 x10E6/uL
  HEMATOCRIT: 41.8%
  HEMOGLOBIN: 16.5 G/DL
  LEUKOCYTE COUNT: 5.1 x10E3/uL
  LYMPHOCYTE: 75%
  MEAN CORPUSCULAR HEMOGLOBIN: 22.7 pg
  MEAN CORPUSCULAR HEMOGLOBIN CONCENTRATION: 39.5 G/DL
  MEAN CORPUSCULAR VOLUME: 57.6 fL
  MONOCYTE: 2%
  NEUTROPHIL: 23%
  NUCLEATED RED BLOOD CELLS: 0 /100WBC
  PLATELET COUNT: 1575 x10E3/uL
  ALANINE AMINOTRANSFERASE: 38 u/L
  ALBUMIN: 3.9 G/DL
  ALKALINE PHOSPHATASE: 162 u/L
  ASPARTATE AMINOTRANSFERASE: 70 u/L
  BLOOD UREA NITROGEN: 24 mg/dL
  CARBON DIOXIDE: 25 mmol/L
  CHLORIDE: 100 MEQ/L
  CHOLESTEROL: 64 mg/dL
  CREATINE PHOSPHOKINASE: 119 u/L
  CREATININE: 0.1 mg/dL
  GLUCOSE: 89 mg/dL
  LACTATE DEHYDROGENASE: 148 u/L
  LIPASE: 7 u/L
  PHOSPHORUS: 15.2 mg/dL
  POTASSIUM: 4.09 MEQ/L
  SODIUM: 144.1 MEQ/L
  TOTAL BILIRUBIN: 0.5 mg/dL
  TOTAL PROTEIN: 5.9 G/DL
  URIC ACID: 2.1 mg/dL
